The assay addresses T1, hMAGL (Homo sapiens, UniProt Q99685).
T1 sequence (Q99685 1-303): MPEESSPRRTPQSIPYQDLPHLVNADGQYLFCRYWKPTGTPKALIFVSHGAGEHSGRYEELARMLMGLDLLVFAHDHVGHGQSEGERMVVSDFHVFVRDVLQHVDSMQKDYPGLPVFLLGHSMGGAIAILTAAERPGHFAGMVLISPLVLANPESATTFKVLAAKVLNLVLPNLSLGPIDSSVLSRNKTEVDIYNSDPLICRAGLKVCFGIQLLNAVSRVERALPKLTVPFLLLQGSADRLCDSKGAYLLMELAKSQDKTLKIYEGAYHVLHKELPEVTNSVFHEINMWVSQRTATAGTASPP
Nature of the assay: 2-AG assay: MAGL inhibition, hydrolysis of 2-arachidonoylglycerol to arachidonic acid followed by mass spectrometry. It counts as biochemical. The method, then: Compounds of formula (I) were profiled for MAGL inhibitory activity by determining the enzymatic activity by following the hydrolysis of the natural substrate 2-arachidonoylglycerol (2-AG) resulting in arachidonic acid, which can be followed by mass spectrometry. This assay is hereinafter abbreviated “2-AG assay”. The 2-AG assay was carried out in 384 well polypropylene assay plates. […] Compound dilutions were added to MAGL protein in assay buffer (50 mM TRIS, 1 mM EDTA, 0.01% (v/v) Tween-20, 2.5% (v/v) DMSO). After shaking, the plate was incubated for 15 min at RT. To start the reaction, 2-arachidonoylglycerol in assay buffer was added. The final concentrations in the assay was […] for MAGL protein and 8 μM 2-arachidonoylglyerol. After shaking and 30 min incubation at RT, the reaction was quenched by the addition of two assay volumes of acetonitrile containing 4 μM of d8-arachidonic acid. The amount of arachidonic acid formed was traced by an online SPE system (Agilent Rapidfire) coupled to a triple quadrupole mass spectrometer. A C18 SPE cartridge (Agilent G9205A) was used in an acetonitrile/water liquid setup. […] The activity of the compounds was calculated based on the ratio of intensities [arachidonic acid/d8-arachidonic acid].
What is called IC50 is the concentration needed to halve the response being measured. The compound `O=C(N1CC2(CCN(Cc3ncc(C(F)F)s3)CC2)C1)N1CC2(CC(c3cc(C4CC4)n[nH]3)C2)C1` [Example 30, [6-(3-cyclopropyl-1H-pyrazol-5-yl)-2-azaspiro[3.3]heptan-2-yl]-[7-[[5-(difluoromethyl)thiazol-2-yl]methyl]-2,7-diazaspiro[3.5]nonan-2-yl]methanone] returned an IC50 of 0.00359 µM.

`O=C(N1CC2(CCN(Cc3ncc(C(F)F)s3)CC2)C1)N1CC2(CC(n3cnc(C(F)(F)F)n3)C2)C1` [Example 31, [7-[[5-(difluoromethyl)thiazol-2-yl]methyl]-2,7-diazaspiro[3.5]nonan-2-yl]-[6-[3-(trifluoromethyl)-1,2,4-triazol-1-yl]-2-azaspiro[3.3]heptan-2-yl]methanone] displayed an IC50 of 0.0131 µM.

`O=C(N1CC2(CCN(Cc3ncc(C(F)F)s3)CC2)C1)N1CC2(CC(n3cnc(C4CC4)n3)C2)C1` [Example 32]: the midpoint of inhibition, the IC50, lay at 0.00286 µM. This IC50 is about 4.6-fold lower than that of the compound before.

`O=C(N1CC2(CCN(Cc3ncc(C(F)F)s3)CC2)C1)N1CC2(CC(n3cnc(C4(O)CC4)n3)C2)C1` [Example 33, [7-[[5-(difluoromethyl)thiazol-2-yl]methyl]-2,7-diazaspiro[3.5]nonan-2-yl]-[6-[3-(1-hydroxycyclopropyl)-1,2,4-triazol-1-yl]-2-azaspiro[3.3]heptan-2-yl]methanone]: half-maximal inhibition (IC50) required 0.0765 µM.

`O=C(N1CC2(CCC(Cc3nnc(C(F)(F)F)[nH]3)CC2)C1)N1CC2(CC(n3cnc(C(F)(F)F)n3)C2)C1` [Example 34, [6-[3-(trifluoromethyl)-1,2,4-triazol-1-yl]-2-azaspiro[3.3]heptan-2-yl]-[7-[[5-(trifluoromethyl)-4H-1,2,4-triazol-3-yl]methyl]-2-azaspiro[3.5]nonan-2-yl]methanone]: half-maximal inhibition (IC50) was put at 0.0218 µM.

As to `O=C(N1CC2(CCC(Cc3nnc(C(F)(F)F)[nH]3)CC2)C1)N1CC2(CC(n3cnc(C4(O)CC4)n3)C2)C1` [Example 35, [6-[3-(1-hydroxycyclopropyl)-1,2,4-triazol-1-yl]-2-azaspiro[3.3]heptan-2-yl]-[7-[[5-(trifluoromethyl)-4H-1,2,4-triazol-3-yl]methyl]-2-azaspiro[3.5]nonan-2-yl]methanone], half-maximal inhibition (IC50) was put at 0.114 µM.

For `O=C(N1CC2(CCC(Cc3nnc(C(F)(F)F)[nH]3)CC2)C1)N1CC2(CC(n3cnc(C4CC4)n3)C2)C1` [Example 36, [6-(3-cyclopropyl-1,2,4-triazol-1-yl)-2-azaspiro[3.3]heptan-2-yl]-[7-[[5-(trifluoromethyl)-4H-1,2,4-triazol-3-yl]methyl]-2-azaspiro[3.5]nonan-2-yl]methanone], the IC50 is 0.302 µM.

With `N#Cc1cnn(CC2CC3(C2)CN(C(=O)N2CC4(CC(c5cc(C6CC6)n[nH]5)C4)C2)C3)c1` [Example 37], the IC50 came to 0.0043 µM.

Turning to `N#Cc1cnn(CC2CC3(C2)CN(C(=O)N2CC4(CC(n5cnc(C6(O)CC6)n5)C4)C2)C3)c1` [Example 38], the IC50 amounted to 0.19 µM.

In turn, `O=C(N1CC2(CC(Cn3cnc(C(F)(F)F)c3)C2)C1)N1CC2(CC(c3cc(C4CC4)n[nH]3)C2)C1` [Example 39, [6-(3-cyclopropyl-1H-pyrazol-5-yl)-2-azaspiro[3.3]heptan-2-yl]-[6-[[4-(trifluoromethyl)imidazol-1-yl]methyl]-2-azaspiro[3.3]heptan-2-yl]methanone] had an IC50 of 0.00156 µM.

`O=C(N1CC2(CC(Cn3cnc(C(F)(F)F)c3)C2)C1)N1CC2(CC(n3cnc(C4CC4)n3)C2)C1` [Example 40, [6-(3-cyclopropyl-1,2,4-triazol-1-yl)-2-azaspiro[3.3]heptan-2-yl]-[6-[[4-(trifluoromethyl)imidazol-1-yl]methyl]-2-azaspiro[3.3]heptan-2-yl]methanone] came in with an IC50 of 0.00416 µM. This IC50 is about 2.7-fold higher than that of the compound before.

As for `O=C(N1CC2(CC(Cn3cnc(C(F)(F)F)c3)C2)C1)N1CC2(CC(n3cnc(C4(O)CC4)n3)C2)C1` [Example 41, [6-[3-(1-hydroxycyclopropyl)-1,2,4-triazol-1-yl]-2-azaspiro[3.3]heptan-2-yl]-[6-[[4-(trifluoromethyl)imidazol-1-yl]methyl]-2-azaspiro[3.3]heptan-2-yl]methanone], the IC50 was 0.0937 µM. This IC50 lies about 23-fold higher than the previous one.

Regarding `O=C(N1CC2(CC(c3cc(C4CC4)n[nH]3)C2)C1)N1CC2(CN(Cc3nc(C4CC4)ns3)C2)C1` [Example 42, [6-(3-cyclopropyl-1H-pyrazol-5-yl)-2-azaspiro[3.3]heptan-2-yl]-[6-[(3-cyclopropyl-1,2,4-thiadiazol-5-yl)methyl]-2,6-diazaspiro[3.3]heptan-2-yl]methanone], the IC50 is 0.00385 µM.

As to `O=C(N1CC2(CC(n3cnc(C(F)(F)F)n3)C2)C1)N1CC2(CN(Cc3nc(C4CC4)ns3)C2)C1` [Example 43, [6-[(3-cyclopropyl-1,2,4-thiadiazol-5-yl)methyl]-2,6-diazaspiro[3.3]heptan-2-yl]-[6-[3-(trifluoromethyl)-1,2,4-triazol-1-yl]-2-azaspiro[3.3]heptan-2-yl]methanone], 0.0231 µM corresponded to half-maximal inhibition (IC50).

`O=C(N1CC2(CC(n3cnc(C4CC4)n3)C2)C1)N1CC2(CN(Cc3nc(C4CC4)ns3)C2)C1` [Example 44, [6-[(3-cyclopropyl-1,2,4-thiadiazol-5-yl)methyl]-2,6-diazaspiro[3.3]heptan-2-yl]-[6-(3-cyclopropyl-1,2,4-triazol-1-yl)-2-azaspiro[3.3]heptan-2-yl]methanone] registered an IC50 of 0.00542 µM.

For `O=C(N1CC2(CC(n3cnc(C4(O)CC4)n3)C2)C1)N1CC2(CN(Cc3nc(C4CC4)ns3)C2)C1` [Example 45, [6-[(3-cyclopropyl-1,2,4-thiadiazol-5-yl)methyl]-2,6-diazaspiro[3.3]heptan-2-yl]-[6-[3-(1-hydroxycyclopropyl)-1,2,4-triazol-1-yl]-2-azaspiro[3.3]heptan-2-yl]methanone], half-maximal inhibition (IC50) required 0.118 µM.

The compound `O=C(N1CC2(CCN(Cc3cc(C(F)(F)F)sn3)CC2)C1)N1CC2(CC(n3cnc(C(F)(F)F)n3)C2)C1` [Example 46, [7-[[5-(trifluoromethyl)isothiazol-3-yl]methyl]-2,7-diazaspiro[3.5]nonan-2-yl]-[6-[3-(trifluoromethyl)-1,2,4-triazol-1-yl]-2-azaspiro[3.3]heptan-2-yl]methanone] had an IC50 of 0.011 µM.

In the case of `O=C(N1CC2(CCN(Cc3cc(C(F)(F)F)sn3)CC2)C1)N1CC2(CC(n3cnc(C4CC4)n3)C2)C1` [Example 47, [6-(3-cyclopropyl-1,2,4-triazol-1-yl)-2-azaspiro[3.3]heptan-2-yl]-[7-[[5-(trifluoromethyl)isothiazol-3-yl]methyl]-2,7-diazaspiro[3.5]nonan-2-yl]methanone], the IC50 turned out to be 0.00186 µM.

Regarding `O=C(N1CC2(CCN(Cc3cc(C(F)(F)F)sn3)CC2)C1)N1CC2(CC(n3cnc(C4(O)CC4)n3)C2)C1` [Example 48, [6-[3-(1-hydroxycyclopropyl)-1,2,4-triazol-1-yl]-2-azaspiro[3.3]heptan-2-yl]-[7-[[5-(trifluoromethyl)isothiazol-3-yl]methyl]-2,7-diazaspiro[3.5]nonan-2-yl]methanone], 0.0429 µM corresponded to half-maximal inhibition (IC50).

Consider `O=C(N1CC2(CC(n3cnc(C(F)(F)F)n3)C2)C1)N1CC2(CN(Cc3cn[nH]c3C(F)(F)F)C2)C1` [Example 49, [6-[[5-(trifluoromethyl)-1H-pyrazol-4-yl]methyl]-2,6-diazaspiro[3.3]heptan-2-yl]-[6-[3-(trifluoromethyl)-1,2,4-triazol-1-yl]-2-azaspiro[3.3]heptan-2-yl]methanone], for which 0.0478 µM corresponded to half-maximal inhibition (IC50).

`O=C(N1CC2(CC(n3cnc(C4CC4)n3)C2)C1)N1CC2(CN(Cc3cn[nH]c3C(F)(F)F)C2)C1` [Example 50, [6-(3-cyclopropyl-1,2,4-triazol-1-yl)-2-azaspiro[3.3]heptan-2-yl]-[6-[[5-(trifluoromethyl)-1H-pyrazol-4-yl]methyl]-2,6-diazaspiro[3.3]heptan-2-yl]methanone] returned an IC50 of 0.0079 µM.

Compound `O=C(N1CC2(CC(n3cnc(C(F)(F)F)n3)C2)C1)N1CC2(CN(Cc3nc(C(F)(F)F)cs3)C2)C1` [Example 51] registered an IC50 of 0.017 µM. Against the preceding compound, the IC50 is about 2.2-fold higher.

The compound `O=C(N1CC2(CC(n3cnc(C4(O)CC4)n3)C2)C1)N1CC2(CN(Cc3nc(C(F)(F)F)cs3)C2)C1` [Example 52] displayed an IC50 of 0.138 µM.

The compound `O=C(N1CC2(CC(n3cnc(C4CC4)n3)C2)C1)N1CC2(CN(Cc3nc(C(F)(F)F)cs3)C2)C1` [Example 53, [6-(3-cyclopropyl-1,2,4-triazol-1-yl)-2-azaspiro[3.3]heptan-2-yl]-[6-[[4-(trifluoromethyl)thiazol-2-yl]methyl]-2,6-diazaspiro[3.3]heptan-2-yl]methanone] had an IC50 of 0.00262 µM. This IC50 is about 53-fold lower than that of the compound before.

With `Cc1sc(CN2CC3(C2)CN(C(=O)N2CC4(CC(n5cnc(C(F)(F)F)n5)C4)C2)C3)nc1C(F)(F)F` [Example 54, [6-[[5-methyl-4-(trifluoromethyl)thiazol-2-yl]methyl]-2,6-diazaspiro[3.3]heptan-2-yl]-[6-[3-(trifluoromethyl)-1,2,4-triazol-1-yl]-2-azaspiro[3.3]heptan-2-yl]methanone], the IC50 was found to be 0.0857 µM.

The record behind these values is patent publication US20260374756A1, “HETEROCYCLIC COMPOUNDS AS INHIBITORS OF MONOACYLGLYCEROL LIPASE (MAGL)” (Hoffmann-La Roche Inc., priority 2022, published 2026).
